From patent US9556187B2, “Substituted pyrrolo[3′,2′:5,6]pyrido[4,3-d]pyrimidines and JAK inhibitors comprising the same” (priority 2011, dated 2017)

Key:
Type in all cases: biochemical
JAK1 [1] = biological target: T1, JAK1 (Homo sapiens (Human), UniProt P23458); test: Enzyme assay, JAK1 (Assay Example^b 1); conditions: ATP 100 μM
Procedure: (§1) JAK1, JAK2, JAK3 and Tyk2 were purchased from Carna Biosciences, Inc. As the substrate, LANCE Ultra ULight-JAK1 Peptide (manufactured by PerkinElmer Co., Ltd. (PE)) was used. Dilute solutions of compounds and enzymes in assay buffer (50 mM HEPES pH7.5, 1 mM EGTA, 1 mM MgCl2, 2 mM DTT, 0.01% Tween20) were dispensed into wells of a 384-well black plate. After 5 minutes of preincubation, dilute solutions of the substrate and ATP (adenosine triphosphate) were added at a final concentration of 100 μM, and the plate was incubated at room temperature for 2 hours. After addition of a termination reagent containing EDTA (ehylenediamine tetraacetic acid) at a final concentration of 10 mM, LANCE Eu-W1024 Anti-phosphotyrosine (PT66) (manufactured by PE) was added, and after 1 hour of incubation, the fluorescences were measured with ARVO-HTS. From the plot of logarithm of a compound concentration and inhibitory activity, the IC50 was calculated.

JAK2 [2] = biological target: T2, JAK2 (Homo sapiens (Human), UniProt O60674); test: Enzyme assay (LANCE Ultra ULight-JAK1 Peptide), JAK2; conditions: ATP 100 μM
JAK1 [3] = biological target: T1, JAK1; test: Enzyme assay (LANCE Ultra ULight-JAK1 Peptide), JAK1; conditions: ATP 100 μM
Tyk2 [4] = biological target: T3, Tyk2 (Homo sapiens (Human), UniProt P29597); test: Enzyme assay (LANCE Ultra ULight-JAK1 Peptide), Tyk2; conditions: ATP 100 μM
T3 sequence (P29597 whole entry): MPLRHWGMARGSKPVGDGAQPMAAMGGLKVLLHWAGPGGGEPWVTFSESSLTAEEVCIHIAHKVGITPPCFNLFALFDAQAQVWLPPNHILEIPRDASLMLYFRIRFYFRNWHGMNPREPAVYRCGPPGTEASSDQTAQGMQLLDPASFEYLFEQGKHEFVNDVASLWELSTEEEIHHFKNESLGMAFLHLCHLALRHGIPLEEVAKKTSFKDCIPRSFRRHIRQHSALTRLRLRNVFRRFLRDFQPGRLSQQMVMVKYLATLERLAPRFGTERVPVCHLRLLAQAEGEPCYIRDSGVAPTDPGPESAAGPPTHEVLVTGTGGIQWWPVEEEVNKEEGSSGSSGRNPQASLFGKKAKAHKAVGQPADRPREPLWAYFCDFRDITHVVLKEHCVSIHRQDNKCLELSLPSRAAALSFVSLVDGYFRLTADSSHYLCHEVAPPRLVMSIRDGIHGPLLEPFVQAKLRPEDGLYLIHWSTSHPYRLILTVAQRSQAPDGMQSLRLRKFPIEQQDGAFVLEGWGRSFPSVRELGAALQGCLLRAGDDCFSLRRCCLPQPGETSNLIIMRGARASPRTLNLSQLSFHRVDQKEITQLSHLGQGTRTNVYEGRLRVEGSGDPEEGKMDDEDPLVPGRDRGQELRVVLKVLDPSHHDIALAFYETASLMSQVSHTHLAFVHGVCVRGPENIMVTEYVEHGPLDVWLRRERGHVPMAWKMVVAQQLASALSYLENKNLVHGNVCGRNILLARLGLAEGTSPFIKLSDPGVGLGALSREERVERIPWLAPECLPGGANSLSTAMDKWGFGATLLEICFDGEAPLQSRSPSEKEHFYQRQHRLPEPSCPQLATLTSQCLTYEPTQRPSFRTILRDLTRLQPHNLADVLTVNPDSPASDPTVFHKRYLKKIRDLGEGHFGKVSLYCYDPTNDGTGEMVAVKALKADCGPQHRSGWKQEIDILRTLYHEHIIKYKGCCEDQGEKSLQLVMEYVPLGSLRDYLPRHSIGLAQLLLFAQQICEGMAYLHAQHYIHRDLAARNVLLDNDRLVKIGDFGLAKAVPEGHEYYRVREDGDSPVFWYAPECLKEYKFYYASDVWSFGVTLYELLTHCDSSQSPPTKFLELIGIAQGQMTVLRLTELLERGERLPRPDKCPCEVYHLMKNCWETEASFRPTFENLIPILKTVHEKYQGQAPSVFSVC

JAK3 = JAK3 (Homo sapiens (Human), UniProt P52333); test: Enzyme assay, JAK3 (Assay Example^b 1)
JAK3, sequence (P52333 whole entry): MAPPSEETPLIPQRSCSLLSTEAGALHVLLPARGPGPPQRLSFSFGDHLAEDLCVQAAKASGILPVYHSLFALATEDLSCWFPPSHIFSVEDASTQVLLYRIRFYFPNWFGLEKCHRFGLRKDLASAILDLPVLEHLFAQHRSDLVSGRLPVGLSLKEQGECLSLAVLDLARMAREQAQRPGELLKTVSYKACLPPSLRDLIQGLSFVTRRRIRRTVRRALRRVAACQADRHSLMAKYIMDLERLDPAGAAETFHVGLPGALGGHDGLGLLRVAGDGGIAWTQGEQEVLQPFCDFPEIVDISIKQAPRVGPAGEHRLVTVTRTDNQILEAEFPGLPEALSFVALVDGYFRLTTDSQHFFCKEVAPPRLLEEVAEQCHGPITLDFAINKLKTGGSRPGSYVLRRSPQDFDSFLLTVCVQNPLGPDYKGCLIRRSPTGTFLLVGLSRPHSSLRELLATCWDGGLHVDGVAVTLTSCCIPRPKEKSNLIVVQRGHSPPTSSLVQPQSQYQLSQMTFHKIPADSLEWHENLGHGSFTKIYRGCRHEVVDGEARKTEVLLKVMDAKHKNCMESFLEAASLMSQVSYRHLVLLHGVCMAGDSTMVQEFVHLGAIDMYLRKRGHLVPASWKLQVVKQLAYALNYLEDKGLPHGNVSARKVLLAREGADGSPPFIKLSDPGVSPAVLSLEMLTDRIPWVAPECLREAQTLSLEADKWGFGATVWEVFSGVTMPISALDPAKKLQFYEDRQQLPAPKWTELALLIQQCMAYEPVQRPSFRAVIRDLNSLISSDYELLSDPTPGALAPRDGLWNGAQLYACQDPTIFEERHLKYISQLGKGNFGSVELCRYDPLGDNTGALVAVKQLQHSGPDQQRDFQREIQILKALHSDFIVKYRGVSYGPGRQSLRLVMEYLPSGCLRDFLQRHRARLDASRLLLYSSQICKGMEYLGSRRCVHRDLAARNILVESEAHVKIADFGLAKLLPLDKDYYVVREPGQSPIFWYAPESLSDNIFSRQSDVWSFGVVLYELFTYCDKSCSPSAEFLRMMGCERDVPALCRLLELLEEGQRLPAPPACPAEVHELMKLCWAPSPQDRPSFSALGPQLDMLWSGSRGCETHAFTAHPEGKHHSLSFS
Procedure: as §1

Tyk2 [5] = biological target: T3, Tyk2; test: Enzyme assay, Tyk2 (Assay Example^b 1); conditions: ATP 100 μM
Procedure: as §1

JAK2 [6] = biological target: T2, JAK2; test: Enzyme assay, JAK2 (Assay Example^b 1); conditions: ATP 100 μM
Procedure: as §1

T1 sequence (P23458 whole entry): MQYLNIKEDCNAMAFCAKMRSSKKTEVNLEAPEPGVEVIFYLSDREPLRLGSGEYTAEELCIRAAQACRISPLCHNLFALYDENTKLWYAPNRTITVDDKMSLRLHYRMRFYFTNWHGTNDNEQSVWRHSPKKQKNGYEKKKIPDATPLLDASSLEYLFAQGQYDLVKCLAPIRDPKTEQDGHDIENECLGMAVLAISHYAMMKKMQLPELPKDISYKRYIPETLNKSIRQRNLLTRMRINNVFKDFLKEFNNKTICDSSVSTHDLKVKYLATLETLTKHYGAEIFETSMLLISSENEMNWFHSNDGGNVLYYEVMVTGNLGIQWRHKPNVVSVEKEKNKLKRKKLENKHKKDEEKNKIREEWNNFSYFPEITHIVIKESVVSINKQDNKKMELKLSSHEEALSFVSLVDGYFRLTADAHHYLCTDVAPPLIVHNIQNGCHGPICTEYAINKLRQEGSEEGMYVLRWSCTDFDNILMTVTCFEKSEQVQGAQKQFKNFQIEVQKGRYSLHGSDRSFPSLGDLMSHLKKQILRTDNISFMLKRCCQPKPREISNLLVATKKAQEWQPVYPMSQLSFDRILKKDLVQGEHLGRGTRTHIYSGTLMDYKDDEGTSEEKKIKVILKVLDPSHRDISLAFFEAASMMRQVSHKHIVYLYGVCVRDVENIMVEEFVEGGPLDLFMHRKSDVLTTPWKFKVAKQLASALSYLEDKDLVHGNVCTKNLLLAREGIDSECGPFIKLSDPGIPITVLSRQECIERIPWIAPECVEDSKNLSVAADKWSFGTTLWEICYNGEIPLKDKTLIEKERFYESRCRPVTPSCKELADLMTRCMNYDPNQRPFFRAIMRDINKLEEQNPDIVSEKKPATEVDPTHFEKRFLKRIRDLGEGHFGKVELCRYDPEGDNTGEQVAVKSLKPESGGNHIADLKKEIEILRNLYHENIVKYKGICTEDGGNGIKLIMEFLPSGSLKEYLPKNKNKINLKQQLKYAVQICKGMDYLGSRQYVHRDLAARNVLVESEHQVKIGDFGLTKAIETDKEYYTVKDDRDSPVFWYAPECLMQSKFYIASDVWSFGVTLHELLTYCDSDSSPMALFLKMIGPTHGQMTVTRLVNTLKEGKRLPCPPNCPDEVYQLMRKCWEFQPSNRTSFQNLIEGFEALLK

SMILES	IC50 (JAK2 [2]; Synthetic Examples^a) [µM]	IC50 (JAK1 [3]; Synthetic Examples^a) [µM]	IC50 (JAK3) [nM]	other results
CC1(C)CCC(c2nnn3cnc4[nH]ccc4c23)CC1 [Ex 64]				IC50 (JAK1 [1]): 0.012 µM; IC50 (JAK2 [2]): 0.12 µM; IC50 (JAK1 [3]): 0.033 µM; IC50 (Tyk2 [4]): 0.31 µM
Brc1nc(CN2CCC(c3nnn4cnc5[nH]ccc5c34)CC2)sc1Br [Ex 233]	0.071	0.021		
c1ccc2sc(CN3CCC(c4nnn5cnc6[nH]ccc6c45)CC3)nc2c1 [Ex 232]	0.033	0.0053		IC50 (Tyk2 [4]; Synthetic Examples^a): 0.74 µM
CC(c1ccccc1)N1CCC(c2nnn3cnc4[nH]ccc4c23)CC1 (racemic) [Ex 245]	0.062	0.017		
C[C@@H]1CCN(Cc2cccc(F)c2F)C[C@@H]1n1ccc(=O)c2cnc3[nH]ccc3c21 (racemic) [Synthetic Example^b 6a, rac-1-[(3R,4R)-1-(2,3-Difluorobenzyl)-4-methylpiperidin-3-yl]-1H-pyrrolo[2,3-h][1,6]naphthyridin-4(7H)-one]			31	
C[C@@H]1CCN(C)C[C@@H]1n1ccc(=O)c2cnc3[nH]ccc3c21 (racemic) [Synthetic Example^b 6b, rac-1-[(3R,4R)-1,4-Dimethylpiperidin-3-yl]-1H-pyrrolo[2,3-h][1,6]naphthyridin-4(7H)-one]			250	IC50 (Tyk2 [5]): 3.9 µM; IC50 (JAK2 [6]): 0.38 µM
